Data published in US6509369B2, “Anti-inflammatory compounds” (Ortho-McNeil Pharmaceutical, Inc., priority 1997, dated 2003).
pIC50: −log10 of the molar value.

Experiments:
[1] = biological target: T1, human glucocorticoid receptor (hGR) (Homo sapiens, UniProt P04150); assay: human glucocorticoid receptor binding assay (displacement of 3(H) Triamcinolone acetonide)
T1 construct: made in house; host or cells: Sf21 insect cells infected with baculovirus hGR, OR IM9 lymphoblast cell line (endogenous hGR)
T1 sequence (P04150 1-777): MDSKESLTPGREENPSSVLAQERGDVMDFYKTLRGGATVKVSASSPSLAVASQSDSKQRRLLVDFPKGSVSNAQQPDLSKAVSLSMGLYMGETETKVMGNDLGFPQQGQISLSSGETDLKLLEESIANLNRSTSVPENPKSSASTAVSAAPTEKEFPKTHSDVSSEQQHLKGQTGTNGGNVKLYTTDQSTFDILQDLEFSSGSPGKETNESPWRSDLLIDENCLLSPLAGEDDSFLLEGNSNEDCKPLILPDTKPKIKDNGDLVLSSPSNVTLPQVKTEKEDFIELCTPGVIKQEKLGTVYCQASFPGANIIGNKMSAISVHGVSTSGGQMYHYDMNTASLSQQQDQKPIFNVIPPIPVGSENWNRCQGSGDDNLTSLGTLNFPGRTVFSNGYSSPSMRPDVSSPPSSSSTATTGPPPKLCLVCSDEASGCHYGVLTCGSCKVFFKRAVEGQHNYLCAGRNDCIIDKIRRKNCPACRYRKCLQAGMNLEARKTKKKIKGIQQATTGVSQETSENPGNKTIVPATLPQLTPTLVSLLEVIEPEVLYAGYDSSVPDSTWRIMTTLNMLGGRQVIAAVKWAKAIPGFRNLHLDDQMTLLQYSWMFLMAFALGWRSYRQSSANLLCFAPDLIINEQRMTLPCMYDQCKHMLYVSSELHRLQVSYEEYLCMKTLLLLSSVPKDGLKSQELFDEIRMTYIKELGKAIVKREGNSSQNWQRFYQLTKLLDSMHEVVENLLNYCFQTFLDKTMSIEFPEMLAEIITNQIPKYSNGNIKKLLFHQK

[2] = tested on: human progesterone receptor (hPR); assay: human progesterone receptor binding assay (displacement of 3(H) R5020 Promegestone)
Method: A human progesterone receptor binding assay was performed in order to determine selectivity of the compounds, as follows. Human progesterone receptors were prepared from either insect cells (SF21) infected with baculovirus hPR A, or from a breast cancer cell line, T47D, which expresses high levels of endogenous hPR. The receptor binding reactions, with or without test compounds, were set up in 96-well microtiter plates which were previously siliconized with SIGMACOTE. The binding components, 3(H) R5020 Promegestone, a high affinity ligand for the progesterone receptors, glycerol/molybdate-containing buffer and unlabeled compounds were added to the wells using a combination of BIOMEK laboratory automation system and repeat pipettes. After overnight incubation, the samples were precipitated with polyethylene glycol and filtered through Whatman GF/F paper using a TOMTEK cell harvester. The filter mate with 96 samples were bound to a solid-phase scintillant and directly counted in the BETAPLATE counter. Only those compounds that were active in the human glucocorticoid receptor assay set forth in Example 30 were used for progesterone receptor binding to determine cross-reactivity profiles, if any. The activity of test compounds to displace 3(H) R5020 binding to hPR is expressed as percent inhibition at the two concentrations, 10^−6 and 10^−5 Molar.

[3] = tested on: oxazolone-induced ear swelling (MOCH) in albino male CD-1 mice; assay: mouse oxazolone-induced contact hypersensitization (MOCH) ear swelling; format: in vivo; conditions: for inhibition in vivo at 1 mg: topical to mouse ear, one hour after oxazolone challenge, ear biopsy weight at 24 hours, read-out: Oxazolone Ear Swelling (MOCH) % inhibition vs. Vehicle at 1 mg; for topical antiinflammatory activity in the oxazolone model (in words): mouse ear; for Oxazolone Ear swelling % Inhibition vs. Vehicle: topical mouse ear; for topical antiinflammatory activity in the oxazolone model (in words) / dose-related activity in the oxazolone model (in words): topical; for dose-related activity in the oxazolone model (in words): doses 0.1-3%
Summary of the method: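 Male CD-1 mice aged 7–9 weeks were sensitised on the abdomen with 3% oxazolone on Day 0 and challenged on Day 5 with 2% oxazolone on the left ear. Compounds in ethanol/propylene glycol 70:30 were applied topically to that ear 1 h after challenge. At 24 h, the weight difference between 7 mm left and right ear biopsies gave the measure of inhibition.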

[4] = tested on: TPA-induced ear edema in albino male CD1 mice; assay: TPA (phorbol ester)-induced ear edema; format: in vivo; conditions: dose 1%, topical mouse ear, 5.5 hours after TPA
Method: Several triphenylpropanamide compounds of this invention, having varying affinities for the human glucocorticoid receptor, were tested for topical antiinflammatory activity in mouse ear inflammation models. […] Compounds having receptor affinities closer to hydrocortisone were as nearly active as hydrocortisone in suppressing mouse oxazolone-induced contact hypersensitization (MOCH) and phorbol ester-induced ear edema. The in vivo studies of this example were conducted as follows.
Albino male CD1 mice, 7-9 weeks old were used in this example. A 0.005% (w/v) TPA or 20% (w/v) arachidonic acid (AA) solution was made in acetone. A 20 μl volume of the TPA or AA was applied to the dorsal left ear of the mouse. Compounds of this invention were placed in a composition containing ethanol/propylene glycol at a ratio of 70:30 were applied to the left ear of each mouse in an amount of 20 μl immediately after application of the TPA or AA. The right ear was not treated. The mice were sacrificed by carbon dioxide inhalation 5.5 hours after administration of TPA and one hour after administration of AA, the left and right ears were removed and a 7 mm biopsy was removed from each ear and weighed. The difference in biopsy weights between the right and left ears was calculated. Antiinflammatory effects of compounds were evident as an inhibition of the increase in ear weight.

O=C(Cc1ccccc1)NCC(c1ccccc1)C(c1ccccc1)c1ccccc1 (stereo not drawn) [Compound 1]
pIC50 [1]: 6.05
melting point: 146 to 147 °C
hPR % inh 10 μM [2]: −0.2%

O=C(Cc1ccccc1)NCC(c1ccccc1)C(c1ccc(F)cc1)c1ccc(F)cc1 (stereo not drawn) [Compound 15]
pIC50 [1]: 7.68
inhibition in vivo at 1 mg [3]: 47%
topical antiinflammatory activity in the oxazolone model (in words) [3]: moderate topical activity
melting point: 87.5 to 89.7 °C

COc1ccccc1CCC(=O)NCC(c1ccc(Cl)cc1)C(c1ccccc1)c1ccccc1 (stereo not drawn) [Compound 21]
pIC50 [1]: 7.24
melting point: 122.2 to 123.5 °C
hPR % inh 10 μM [2]: 21%

O=C(Cc1cccs1)NCC(c1ccccc1)C(c1ccccc1)c1ccccc1 (stereo not drawn) [Compound 29, N-(2-thiophrne)acetyl-2,3,3-triphenylpropylamine]
pIC50 [1]: 8.10
Oxazolone Ear swelling % Inhibition vs. Vehicle ([3]; Experiment 1, dose 0.1%): 4.3%
Oxazolone Ear swelling % Inhibition vs. Vehicle ([3]; Experiment 1, dose 0.3%): 34.7%
Oxazolone Ear swelling % Inhibition vs. Vehicle ([3]; Experiment 1, dose 1%): 49.9%
Oxazolone Ear swelling % Inhibition vs. Vehicle ([3]; Experiment 1, dose 3%): 66.5%
dose-related activity in the oxazolone model (in words) [3]: inhibited ear swelling in a dose-dependent manner
topical antiinflammatory activity in the oxazolone model (in words) [3]: equiactive with hydrocortisone
% Inhibition of TPA Ear Edema vs. Vehicle [4]: 64.9%
hPR % inh 10 μM [2]: 28.3%

Cc1ccc(CC(=O)NCC(c2ccccc2)C(c2ccc(F)cc2)c2ccc(F)cc2)s1 (stereo not drawn) [Compound 32]
pIC50 [1]: 8.15
Oxazolone Ear swelling % Inhibition vs. Vehicle ([3]; Experiment 2, dose 0.1%): 11.2%
Oxazolone Ear swelling % Inhibition vs. Vehicle ([3]; Experiment 2, dose 0.3%): 18.95%
Oxazolone Ear swelling % Inhibition vs. Vehicle ([3]; Experiment 2, dose 1%): 31.45%
Oxazolone Ear swelling % Inhibition vs. Vehicle ([3]; Experiment 2, dose 3%): 36.5%
dose-related activity in the oxazolone model (in words) [3]: inhibited ear swelling in a dose-dependent manner
topical antiinflammatory activity in the oxazolone model (in words) [3]: equiactive with hydrocortisone
% Inhibition of TPA Ear Edema vs. Vehicle [4]: 60.0%

O=C(Cc1cccs1)NCC(c1cccs1)C(c1ccccc1)c1ccccc1 (stereo not drawn) [Compound 46]
pIC50 [1]: 6.14
inhibition in vivo at 1 mg [3]: 4%
melting point: 138.2 to 139.9 °C

C[C@]12CCC(=O)C=C1CC[C@@H]1[C@@H]2[C@@H](O)C[C@@]2(C)[C@H]1CC[C@]2(O)C(=O)CO [hydrocortisone, reference compound]
Oxazolone Ear swelling % Inhibition vs. Vehicle ([3]; Experiment 1, dose 1%): 78.9%
Oxazolone Ear swelling % Inhibition vs. Vehicle ([3]; Experiment 2, dose 1%): 58.2%
% Inhibition of TPA Ear Edema vs. Vehicle [4]: 80.6%
